Some results are limits rather than exact numbers.

In series [1] the target is T1, recombinant human transglutaminase 2 (Homo sapiens, UniProt P21980).
T1 construct: purchased Zedira T022
T1 sequence (P21980 1-687): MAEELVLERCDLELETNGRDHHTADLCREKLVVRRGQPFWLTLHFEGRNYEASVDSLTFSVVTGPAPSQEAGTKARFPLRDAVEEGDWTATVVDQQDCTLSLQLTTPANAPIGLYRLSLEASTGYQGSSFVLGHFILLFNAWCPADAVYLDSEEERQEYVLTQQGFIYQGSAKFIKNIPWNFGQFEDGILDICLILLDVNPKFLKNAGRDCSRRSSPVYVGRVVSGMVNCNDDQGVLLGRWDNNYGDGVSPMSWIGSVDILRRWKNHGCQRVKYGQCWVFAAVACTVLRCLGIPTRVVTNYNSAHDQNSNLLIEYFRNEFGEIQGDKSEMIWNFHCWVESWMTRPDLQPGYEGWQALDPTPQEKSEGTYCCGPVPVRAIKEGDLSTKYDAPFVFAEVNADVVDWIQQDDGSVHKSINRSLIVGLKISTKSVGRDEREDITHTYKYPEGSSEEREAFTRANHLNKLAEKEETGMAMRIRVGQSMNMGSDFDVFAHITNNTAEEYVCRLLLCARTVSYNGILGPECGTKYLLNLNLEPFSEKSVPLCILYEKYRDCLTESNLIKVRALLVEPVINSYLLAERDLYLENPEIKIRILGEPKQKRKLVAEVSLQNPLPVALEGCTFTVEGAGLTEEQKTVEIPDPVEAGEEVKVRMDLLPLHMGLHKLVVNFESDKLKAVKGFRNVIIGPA
The series can be described thus: Transglutaminase assay (dansylcadaverine incorporation into dimethylcasein, DCC-assay). The note with it: recombinant human TG2 10 nM, dansylcadaverine/dimethylcasein, 37° C. It counts as biochemical. A digest of the protocol:
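IC50 derived from fluorescence slope between 20 and 30 min (λex 330 nm, λem 500 nm, 37 °C), expressed relative to a 2% DMSO control. Reaction: 10 nM recombinant human TG2, 4 μM dimethylcasein, 16.7 μM dansylcadaverine, 10 mM CaCl2 and glutathione, pH 8.0.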

A short description of series [2]: Log D shake flask method (octanol / PBS pH 7.4, HPLC). Format: physicochemical. The note with it: octanol/phosphate-buffered saline (PBS); octanol / PBS pH 7.4, shake flask. On the procedure:
In order to classify the inventive compounds according to their lipophilicity, Log D values (distribution coefficient) were determined by means of the well-established shake flask method, measuring the partition of a compound between an octanol and phosphate-buffered saline (PBS, pH 7.4) by HPLC.

Series [3] can be described thus: Caco-2 permeability assay (CacoReady kit). Format: in vitro ADME. The note with it: human. In outline: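 Read-out is the permeability coefficient Papp, obtained from transport across a Caco-2 barrier prepared from a ready-to-use kit following the manufacturer's instructions.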

As for `CCCCCNC(=O)/C=C/CC[C@H](NC(=O)c1nc2ccccc2s1)C(=O)Nc1cccn(CC(=O)NC23CC(C2)C3)c1=O` [III-142, (S,E)-6-(benzo[d]thiazole-2-carboxamido)-N7-(1-(2-(bicyclo[1.1.1]pentan-1-ylamino)-2-oxoethyl)-2-oxo-1,2-dihydropyridin-3-yl)-N1-pentylheptyl-2-enediamide], the IC50 in series [1] fell in the range of 25 to 250 nM. The same compound displayed a logD in series [2] of 1 to 3. Also, the Papp in series [3] was 1 to 10 ×10⁻⁶ cm/s.

Turning to `CCCCCNC(=O)/C=C/CC[C@H](NC(=O)c1cn2ccsc2n1)C(=O)Nc1cccn(CC(=O)NC23CC(C2)C3)c1=O` [III-143, (S,E)-N7-(1-(2-(bicyclo[1.1.1]pentan-1-ylamino)-2-oxoethyl)-2-oxo-1,2-dihydropyridin-3-yl)-6-(imidazo[2,1-b]thiazole-6-carboxamido)-N1-pentylhept-2-enediamide], the IC50 in series [1] fell in the range of 250 to 1500 nM. Besides, the logD in series [2] is 1 to 3. Further, the Papp in series [3] is 1 to 10 ×10⁻⁶ cm/s.

In the case of `O=C(/C=C/CC[C@H](NC(=O)c1cnc2ccc(OC(F)(F)F)cc2c1O)C(=O)Nc1cccn(CC(=O)NC23CC(C2)C3)c1=O)NC1CC1` [III-144, (S,E)-N7-(1-(2-(bicyclo[1.1.1]pentan-1-ylamino)-2-oxoethyl)-2-oxo-1,2-dihydropyridin-3-yl)-N1-cyclopropyl-6-(4-hydroxy-6-(trifluoromethoxy)quinoline-3-carboxamido)hept-2-enediamide], the IC50 in series [1] is 250 to 1500 nM. In series [2], this compound yielded a logD of 3 to 5. Besides, the Papp in series [3] was < 1 ×10⁻⁶ cm/s.

For `O=C(/C=C/CC[C@H](NC(=O)c1cc2ccccc2nn1)C(=O)Nc1cccn(CC(=O)NC23CC(C2)C3)c1=O)NC1CC1` [III-145, (S,E)-N7-(1-(2-(bicyclo[1.1.1]pentan-1-ylamino)-2-oxoethyl)-2-oxo-1,2-dihydropyridin-3-yl)-6-(cinnoline-3-carboxamido)-N1-cyclopropylhept-2-enediamide], the IC50 in series [1] lay within 25 to 250 nM. In addition, the logD in series [2] was < 1. Moreover, the Papp in series [3] is < 1 ×10⁻⁶ cm/s.

As for `Cc1nc2ncccc2cc1C(=O)N[C@@H](CC/C=C/C(=O)NC1CCCC1)C(=O)Nc1cccn(CC(=O)NC23CC(C2)C3)c1=O` [III-146, (S,E)-N7-(1-(2-(bicyclo[1.1.1]pentan-1-ylamino)-2-oxoethyl)-2-oxo-1,2-dihydropyridin-3-yl)-N1-cyclopentyl-6-(2-methyl-1,8-naphthyridine-3-carboxamido)hept-2-enediamide], in series [1], the IC50 was 250 to 1500 nM. Further, in series [2], the logD was < 1. Besides, the apparent permeability coefficient (Papp) in series [3] was < 1 ×10⁻⁶ cm/s.

Take `CCc1c(C(=O)N[C@@H](CC/C=C/C(=O)NC2CCCC2)C(=O)Nc2cccn(CC(=O)NC34CC(C3)C4)c2=O)oc2ccccc12` [III-147, (S,E)-N7-(1-(2-(bicyclo[1.1.1]pentan-1-ylamino)-2-oxoethyl)-2-oxo-1,2-dihydropyridin-3-yl)-N1-cyclopentyl-6-(3-ethylbenzofuran-2-carboxamido)hept-2-enediamide]: the IC50 in series [1] was 25 to 250 nM. Further, the logD in series [2] fell in the range of 1 to 3. Moreover, in series [3], the Papp lay in the range of 1 to 10 ×10⁻⁶ cm/s.

For `CCn1c(C(=O)N[C@@H](CC/C=C/C(=O)NC2CCCCC2)C(=O)Nc2cccn(CC(=O)NC34CC(C3)C4)c2=O)cc2ccccc21` [III-148, (S,E)-N7-(1-(2-(bicyclo[1.1.1]pentan-1-ylamino)-2-oxoethyl)-2-oxo-1,2-dihydropyridin-3-yl)-N1-cyclohexyl-6-(1-ethyl-1H-indole-2-carboxamido)hept-2-enediamide], in series [1], the IC50 was in the range of 25 to 250 nM. Moreover, the logD in series [2] was 3 to 5. In addition, the Papp in series [3] is 1 to 10 ×10⁻⁶ cm/s.

Take `O=C(/C=C/CC[C@H](NC(=O)c1ccc2c(c1)NCCC2)C(=O)Nc1cccn(CC(=O)NC23CC(C2)C3)c1=O)NC1CCCCC1` [III-149, (S,E)-N7-(1-(2-(bicyclo[1.1.1]pentan-1-ylamino)-2-oxoethyl)-2-oxo-1,2-dihydropyridin-3-yl)-N1-cyclohexyl-6-(1,2,3,4-tetrahydroquinoline-7-carboxamido)hept-2-enediamide]: the IC50 in series [1] is 250 to 1500 nM. In series [2], this compound came in with a logD of 1 to 3. Further, in series [3], the Papp was < 1 ×10⁻⁶ cm/s.

As for `C=CCNC(=O)/C=C/CC[C@H](NC(=O)c1ccc2cnccc2n1)C(=O)Nc1cccn(CC(=O)NC23CC(C2)C3)c1=O` [III-150, (S,E)-N1-allyl-N7-(1-(2-(bicyclo[1.1.1]pentan-1-ylamino)-2-oxoethyl)-2-oxo-1,2-dihydropyridin-3-yl)-6-(1,6-naphthyridine-2-carboxamido)hept-2-enediamide], the IC50 in series [1] lay within 25 to 250 nM. Besides, the logD in series [2] was < 1. Also, the Papp in series [3] is < 1 ×10⁻⁶ cm/s.

For the compound `C=CCNC(=O)/C=C/CC[C@H](NC(=O)c1nccc2cnccc12)C(=O)Nc1cccn(CC(=O)NC23CC(C2)C3)c1=O` [III-151, (S,E)-N1-allyl-N7-(1-(2-(bicyclo[1.1.1]pentan-1-ylamino)-2-oxoethyl)-2-oxo-1,2-dihydropyridin-3-yl)-6-(2,6-naphthyridine-1-carboxamido)hept-2-enediamide], the IC50 in series [1] was in the range of 250 to 1500 nM. Also, the logD in series [2] is < 1. Moreover, in series [3], the Papp is < 1 ×10⁻⁶ cm/s.

Consider `Cc1oc(Br)cc1C(=O)N[C@@H](CC/C=C/C(=O)Nc1ccccc1)C(=O)Nc1cccn(CC(=O)NC23CC(C2)C3)c1=O` [III-152, (S,E)-N7-(1-(2-(bicyclo[1.1.1]pentan-1-ylamino)-2-oxoethyl)-2-oxo-1,2-dihydropyridin-3-yl)-6-(5-bromo-2-methylfuran-3-carboxamido)-N1-phenylhept-2-enediamide], for which the IC50 in series [1] lay within 25 to 250 nM. In addition, the logD in series [2] lay in the range of 1 to 3. This compound registered a Papp in series [3] of 1 to 10 ×10⁻⁶ cm/s.

For the compound `Cc1cc(C(=O)N[C@@H](CC/C=C/C(=O)Nc2ccccc2)C(=O)Nc2cccn(CC(=O)NC34CC(C3)C4)c2=O)c(C)o1` [III-153, (S,E)-N7-(1-(2-(bicyclo[1.1.1]pentan-1-ylamino)-2-oxoethyl)-2-oxo-1,2-dihydropyridin-3-yl)-6-(2,5-dimethylfuran-3-carboxamido)-N1-phenylhept-2-enediamide], in series [1], the IC50 fell in the range of 25 to 250 nM. The logD in series [2] fell in the range of 1 to 3. In series [3], this compound gave a Papp of 1 to 10 ×10⁻⁶ cm/s.

As to `O=C(/C=C/CC[C@H](NC(=O)c1nc(Cl)sc1Cl)C(=O)Nc1cccn(CC(=O)NC23CC(C2)C3)c1=O)NCc1ccccc1` [III-154, (S,E)-N1-benzyl-N7-(1-(2-(bicyclo[1.1.1]pentan-1-ylamino)-2-oxoethyl)-2-oxo-1,2-dihydropyridin-3-yl)-6-(2,5-dichlorothiazole-4-carboxamido)hept-2-enediamide], the IC50 in series [1] is 250 to 1500 nM. For the same compound, in series [2], the logD is 1 to 3. Further, the Papp in series [3] fell in the range of 1 to 10 ×10⁻⁶ cm/s.

Take `O=C(/C=C/CC[C@H](NC(=O)c1nc(Br)cs1)C(=O)Nc1cccn(CC(=O)NC23CC(C2)C3)c1=O)NCc1ccccc1` [III-155, (S,E)-N1-benzyl-N7-(1-(2-(bicyclo[1.1.1]pentan-1-ylamino)-2-oxoethyl)-2-oxo-1,2-dihydropyridin-3-yl)-6-(4-bromothiazole-2-carboxamido)hept-2-enediamide]: the IC50 in series [1] lay within 25 to 250 nM. Moreover, the logD in series [2] was in the range of 1 to 3. The same compound had a Papp in series [3] of 1 to 10 ×10⁻⁶ cm/s.

As for `Cn1ccnc1C(=O)N[C@@H](CC/C=C/C(=O)c1ccccc1)C(=O)Nc1cccn(CC(=O)NC23CC(C2)C3)c1=O` [III-157, (S,E)-N-(1-(1-(2-(bicyclo[1.1.1]pentan-1-ylamino)-2-oxoethyl)-2-oxo-1,2-dihydropyridin-3-ylamino)-1,7-dioxo-7-phenylhept-5-en-2-yl)-1-methyl-1H-imidazole-2-carboxamide], in series [1], the IC50 fell in the range of 250 to 1500 nM. The compound also displayed a logD in series [2] of 1 to 3. The Papp in series [3] was < 1 ×10⁻⁶ cm/s.

For the compound `CC(C)OC(=O)/C=C/CC[C@H](NC(=O)c1cn[nH]n1)C(=O)Nc1cccn(CC(=O)NC23CCC(C2)C3)c1=O` [III-158, (S,E)-isopropyl 7-(1-(2-(bicyclo[2.1.1]hexan-1-ylamino)-2-oxoethyl)-2-oxo-1,2-dihydropyridin-3-ylamino)-7-oxo-6-(2H-1,2,3-triazole-4-carboxamido)hept-2-enoate], the IC50 in series [1] was in the range of 250 to 1500 nM. Moreover, the logD in series [2] is < 1. For the same compound, the Papp in series [3] was < 1 ×10⁻⁶ cm/s.

On to `CC(=O)/C=C/CC[C@H](NC(=O)c1ncn(C)n1)C(=O)Nc1cccn(CC(=O)NC2C3CCCC2CC3)c1=O` (stereo partly drawn) [III-159, N-((2S,E)-1-(1-(2-(bicyclo[3.2.1]octan-8-ylamino)-2-oxoethyl)-2-oxo-1,2-dihydropyridin-3-ylamino)-1,7-dioxooct-5-en-2-yl)-1-methyl-1H-1,2,4-triazole-3-carboxamide], for which the IC50 in series [1] lay within 250 to 1500 nM. In series [2], the logD is < 1. Besides, the apparent permeability (Papp) in series [3] is < 1 ×10⁻⁶ cm/s.

The values above are taken from patent US20240317708A1, “INHIBITORS OF TRANSGLUTAMINASES” (ZEDIRA GMBH, priority 2021, published 2024).
